Data taken from ChEMBL document CHEMBL3286333, “Concise synthesis of C-1-cyano-iminosugars via a new Staudinger/aza Wittig/Strecker multicomponent reaction strategy” (Bioorg Med Chem Lett, 2014).

How the values were obtained:
[1] = biological target: T1, Lysosomal acid glucosylceramidase (Homo sapiens, UniProt P04062); experiment: Inhibition of human lysosomal beta-glucocerebrosidase
T1 sequence (P04062 whole entry): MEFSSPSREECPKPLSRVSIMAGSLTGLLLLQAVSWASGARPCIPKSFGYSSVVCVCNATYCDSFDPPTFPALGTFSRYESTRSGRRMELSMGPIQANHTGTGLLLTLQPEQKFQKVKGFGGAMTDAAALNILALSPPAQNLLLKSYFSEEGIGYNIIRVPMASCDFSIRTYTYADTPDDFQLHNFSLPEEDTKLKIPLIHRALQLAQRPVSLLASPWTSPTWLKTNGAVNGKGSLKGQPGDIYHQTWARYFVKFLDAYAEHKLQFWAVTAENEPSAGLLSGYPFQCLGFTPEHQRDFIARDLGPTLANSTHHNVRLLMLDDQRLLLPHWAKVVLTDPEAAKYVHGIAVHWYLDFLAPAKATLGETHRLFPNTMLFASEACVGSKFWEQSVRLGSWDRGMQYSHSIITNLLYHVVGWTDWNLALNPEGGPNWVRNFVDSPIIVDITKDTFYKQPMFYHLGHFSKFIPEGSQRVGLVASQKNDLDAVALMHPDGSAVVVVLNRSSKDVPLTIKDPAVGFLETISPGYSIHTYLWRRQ

[2] = biological target: T1, Lysosomal acid glucosylceramidase; experiment: Inhibition of human lysosomal beta-glucocerebrosidase using 2,4-dinitrophenyl-beta-D-glucopyranoside as substrate by UV spectrophotometric analysis

Row | SMILES | Ki [1] [nM] | Ki [2] [µM]
1 | O[C@@H]1[C@@H](O)[C@@H](CCCCCOCC23CC4CC(CC(C4)C2)C3)NC[C@H]1O | 1 | 
2 | N#C[C@H]1NC[C@@H](O)[C@H](O)[C@H]1O |  | 34
3 | N#C[C@H]1N[C@H](CO)[C@@H](O)[C@H](O)[C@H]1O |  | 716
4 | CN(C)c1cccc2c(S(=O)(=O)NC[C@H]3NC[C@@H](O)[C@H](O)[C@H]3O)cccc12 |  | 0.0075
